From patent publication US20210236466A1, “COMPOUNDS AND COMPOSITIONS FOR TREATING CONDITIONS ASSOCIATED WITH STING ACTIVITY” (IFM Due, Inc., priority 2018, published 2021)

Target: T1, hSTING (Homo sapiens, UniProt Q86WV6, G230A/H232R/R293Q/R71H)
T1 construct: host or cells: THP1-Dual KO-IFNAR2 cells
Test: STING reporter assay: luciferase reporter activity in THP1-Dual KO-IFNAR2 cells stimulated with 2'3'cGAMP
Format: cell-based
Settings: 15 μM 2'3'cGAMP, 24 h
Method: STING pathway activation by the compounds described herein is measured using THP1-Dual™ cells (KO-IFNAR2).
THP1-Dual™ KO-IFNAR2 Cells (obtained from invivogen) are maintained in RPMI, 10% FCS, 5 ml P/S, 2 mM L-glut, 10 mM Hepes, and 1 mM sodium pyruvate. Compounds are spotted in empty 384 well tissue culture plates (Greiner 781182) by Echo for a final concentration of 0.0017-100 μM. Cells are plated into the TC plates at 40 μL per well, 2×10E6 cells/mL. For activation with STING ligand, 2′3′cGAMP (MW 718.38, obtained from Invivogen), is prepared in Optimem media.
The following solutions are prepared for each 1×384 plate: • Solution A: 2 mL Optimem with one of the following stimuli: • 60 uL of 10 mM 2′3′cGAMP->150 μM stock • Solution B: 2 mL Optimem with 60 μL Lipofectamine 2000->Incubate 5 min at RT
2 mL of solution A and 2 ml Solution B is mixed and incubated for 20 min at room temperature (RT). 20 uL of transfection solution (A+B) is added on top of the plated cells, with a final 2′3′cGAMP concentration of 15 μM. The plates are then centrifuged immediately at 340 g for 1 minute, after which they are incubated at 37° C. 5% CO2, >98% humidity for 24 h. Luciferase reporter activity is then measured. EC50 values are calculated by using standard methods known in the art.
Luciferase reporter assay: 10 μL of supernatant from the assay is transferred to white 384-plate with flat bottom and squared wells, one pouch of QUANTI-Luc™ Plus is dissolved in 25 mL of water. 100 μL of QLC Stabilizer per 25 mL of QUANTI-Luc™ Plus solution is added. 50 μL of QUANTI-Luc™ Plus/QLC solution per well is then added. Luminescence is measured on a Platereader (e.g., Spectramax I3X (Molecular Devices GF3637001)).
Luciferase reporter activity is then measured. EC50 values are calculated by using standard methods known in the art.

T1 sequence (Q86WV6 whole entry R71H/G230A/H232R/R293Q): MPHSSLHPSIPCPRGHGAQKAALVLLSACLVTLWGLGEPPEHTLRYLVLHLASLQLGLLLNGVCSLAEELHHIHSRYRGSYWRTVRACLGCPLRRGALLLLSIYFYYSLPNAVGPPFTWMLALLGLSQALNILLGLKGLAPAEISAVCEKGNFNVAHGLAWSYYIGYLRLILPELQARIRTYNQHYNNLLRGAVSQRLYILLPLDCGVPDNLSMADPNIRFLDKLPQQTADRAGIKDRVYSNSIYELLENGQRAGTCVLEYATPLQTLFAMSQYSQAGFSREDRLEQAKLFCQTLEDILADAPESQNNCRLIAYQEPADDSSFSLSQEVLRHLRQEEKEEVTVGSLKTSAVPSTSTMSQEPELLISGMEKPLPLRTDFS

Structure (SMILES)	EC50 [µM]
CCCCc1ccc(NC(=O)Nc2c[nH]nc2C2CCCCC2)cc1 [Compound 44]	5 to 100
CCCCc1ccc(NC(=O)N2CCCc3n[nH]cc32)cc1 [Compound 60]	5 to 100
O=C(Nc1ccc(C(F)(F)F)cc1)Nc1cn[nH]c1 [Compound 57]	5 to 100
O=C(Nc1cccc(C(F)(F)F)c1)Nc1c[nH]nc1-c1ccccc1 [Compound 56]	5 to 100
CCCCC1CCC(NC(=O)Nc2c[nH]nc2-c2ccccc2)CC1 (stereo not drawn) [Compound 54]	5 to 100
CCCCc1ccc(NC(=O)Nc2cn[nH]c2)cc1 [Compound 52]	5 to 100
O=C(Nc1c[nH]nc1-c1ccccc1)NC1CCCc2ccccc21 (stereo not drawn) [Compound 50]	5 to 100
O=C(Nc1ccc(C(F)(F)F)cc1)Nc1c[nH]nc1-c1ccccc1 [Compound 58]	5 to 100
CCCCc1ccc(NC(=O)Nc2c[nH]nc2-c2ccccc2)cc1 [Compound 59, l-(4-Butylphenyl)-3-(3-phenyl-1H-pyrazol-4-yl)urea]	< 5
CCCCc1cccc(NC(=O)Nc2c[nH]nc2-c2ccccc2)c1 [Compound 46]	5 to 100
CCCCc1ccc(NC(=O)Nc2c[nH]nc2-c2nccs2)cc1 [Compound 43]	< 5
CC(C)(C)C1CCC(NC(=O)Nc2c[nH]nc2-c2ccccc2)CC1 (stereo not drawn) [Compound 48]	5 to 100
O=C(Nc1ccc(C(F)(F)F)nc1)Nc1c[nH]nc1-c1ccccc1 [Compound 37]	5 to 100
CCCCc1ccc(NC(=O)Nc2c[nH]nc2-c2ccccc2F)cc1 [Compound 45]	< 5
O=C(Nc1c[nH]nc1-c1ccccc1)NC1CCCC(c2ccccc2)C1 (stereo not drawn) [Compound 51, 3-(3-Phenyl-1H-pyrazol-4-yl)-1-(3-phenylcyclohexyl)urea]	5 to 100
O=C(Nc1ccc(C2CCCCC2)cn1)Nc1c[nH]nc1-c1ccccc1 [Compound 38]	5 to 100
O=C(Nc1c[nH]nc1-c1ccccc1)NC1CCC2(CCC2)CC1 [Compound 40]	5 to 100
O=C(Nc1ccc(C2CCCCC2)nc1)Nc1c[nH]nc1-c1ccccc1 [Compound 36]	< 5
O=C(Nc1c[nH]nc1-c1ccccc1)NC1CCC(c2ccccc2)CC1 (stereo not drawn) [Compound 55]	5 to 100
CCCCc1ccc(NC(=O)Nc2c[nH]nc2-c2ccccn2)cc1 [Compound 47]	< 5
CCCCc1ccc(NC(=O)Nc2c[nH]nc2C)cc1 [Compound 41]	5 to 100
O=C(Nc1c[nH]nc1-c1ccccc1)NC1CCc2ccccc2C1 (stereo not drawn) [Compound 49]	5 to 100
CCCCc1ccc(NC(=O)Nc2c[nH]nc2-c2ccsc2)cc1 [Compound 42]	< 5
O=C(Nc1ccc(C(F)(F)F)cn1)Nc1c[nH]nc1-c1ccccc1 [Compound 39]	< 5
